{"source": "patent US20150125515A1", "about": "“NOVEL SP-B & SP-C PEPTIDES, SYNTHETIC LUNG SURFACTANTS, AND USE THEREOF” (UNIVERSITY OF ROCHESTER, priority 2012, published 2015)", "key": {"[1]": {"tested_on": "ventilated rabbits with ARDS induced by saline lavage", "experiment": "Saline-lavage ventilated rabbit model of ARDS: arterial oxygenation and dynamic compliance", "assay_type": "in vivo, New Zealand white rabbits", "conditions": "for Oxygenation and lung compliance after instillation (FIG. 1): SP-B mimics 3.0% by weight in 5:3:2 (weight ratio) DPPC:POPC:POPG; for Oxygenation and lung compliance after instillation (FIG. 1) / Oxygenation and lung compliance after instillation (FIG. 2): PBS pH 7.4, 35 mg/mL; for Oxygenation and lung compliance after instillation (FIG. 1) / relative order of pulmonary activity in terms of oxygenation / relative pulmonary activity with respect to lung compliance / Oxygenation and lung compliance after instillation (FIG. 2) / relative order of pulmonary activity in terms of oxygenation and lung compliance: intratracheal 100 mg/kg; for Oxygenation and lung compliance after instillation (FIG. 1) / relative order of pulmonary activity in terms of oxygenation / relative pulmonary activity with respect to lung compliance: over 120 min; for relative order of pulmonary activity in terms of oxygenation / relative pulmonary activity with respect to lung compliance: SP-B mimics 3.0% by weight in 5:3:2 DPPC:POPC:POPG; for Oxygenation and lung compliance after instillation (FIG. 2): SP-C mimics 3.0% by weight in 5:3:2 (weight ratio) DPPC:POPC:POPG; for relative order of pulmonary activity in terms of oxygenation and lung compliance: SP-C mimics 3.0% by weight in 5:3:2 DPPC:POPC:POPG", "experimental": "Saline lavage produces surfactant deficiency, alveolar collapse and lung edema in ventilated rats and rabbits, and is a useful experimental model for human ARDS. A saline-lavage rabbit model for lung injury was thus used to compare synthetic surfactants, with lipids only as negative control. Restoration of lung function was assessed by serial monitoring of gas exchange and lung mechanics. Physiological activity results for selected synthetic SP-B peptides are shown below, and physiological activity results for selected synthetic SP-C peptides are included in following Example 8.\nAnimal experiments were performed following established protocols approved by the Animal Care and Use Committee at the Los Angeles Biomedical Research Institute at Harbor-UCLA Medical Center. […] In brief, experimental animals were commercially available young adult male New Zealand white rabbits whose respiratory function was followed during mechanical ventilation by measurements of serial arterial blood gases and pulmonary compliance over the first 2 hours after a standardized saline lavage protocol. For this timeframe of study, the model reflected a relatively pure state of surfactant insufficiency in animals with mature lungs. Saline lavage administration was performed after induction of anesthesia, insertion of a venous line in a marginal ear vein, endotracheal intubation and initiation of mechanical ventilation, muscle paralysis, and insertion of a carotid arterial line. Heart rate, arterial blood pressure and rectal temperature were measured continuously. After stabilization on the ventilator, saline lavage was performed with repeated intratracheal instillation and removal of 30 mL of normal saline until the PaO2 dropped below 100 mm Hg (average 3 lavages). Maintenance fluid was provided by a continuous infusion of Lactated Ringer's solution at a rate of 10 ml/kg/h. Edema fluid appearing in the trachea was removed by suctioning. When the PaO2 was stable at less than 100 mm Hg in saline lavaged animals, an experimental or control surfactant mixture was instilled into the trachea at a dose of 100 mg/kg body weight and a concentration of 35 mg/mL. The rabbits were ventilated using a Harvard volume-controlled animal ventilator (tidal volume 7.5 ml/kg, a positive end-expiratory pressure [PEEP] of 3 cm H2O, an inspiratory/expiratory ratio of 1:2, 100% oxygen, and a respiratory rate to maintain a PaCO2 at ˜40 mm Hg). Airway flow and pressures and tidal volume were monitored continuously with a pneumotachograph connected to the endotracheal tube and a pneumotach system. Arterial pH and blood gases were done every 15 minutes. Dynamic lung compliance was calculated by dividing tidal volume/kg body weight by changes in airway pressure (peak inspiratory pressure minus positive end-expiratory pressure) (mL/kg/cmH2O). Animals were sacrificed 2 h after surfactant administration with an overdose of pentobarbital. End-points are pulmonary gas exchange (arterial pH, PaCO2 and PaO2) and pulmonary mechanics (dynamic compliance, postmortem pressure-volume curves). Each treatment group consisted of n=4-9 animals.\nThe in vivo pulmonary activity of reduced MB DATK and SMB DATK was investigated in comparison with oxidized SMB and MB (positive controls) and lipids alone (negative control) over 120 min, following intratracheal instillation of these surfactants into ventilated rabbits with ARDS induced by saline lavage. Oxidized SMB and MB were used as positive controls, because these SP-B mimics previously indicated high in vivo surfactant activities equal to those of native, full-length porcine SP-B in ventilated rats with ARDS (Walther et al., “Critical Structural and Functional Roles for the N-terminal Insertion Sequence in Surfactant Protein B Analogs,” PLoS One 5:e8672 (2010), which is hereby incorporated by reference in its entirety). […]"}, "[2]": {"experiment": "Adsorption of surfactant compositions to the air-water interface (surface pressure vs time, Wilhelmy method)", "assay_type": "physicochemical", "conditions": "for adsorption compared with lung surfactant (CLSE in Table 7): 3% by weight peptide with 5:3:2 (molar ratio) DPPC:POPC:POPG; for adsorption, result in words: peptide 3% by weight with synthetic ester linked phospholipids 5:3:2 DPPC:POPC:POPG", "experimental": "Surface activity of synthetic peptide/lipid surfactant compositions was assessed by either or both of the following methods: (1) measurement of the adsorption of surfactant compositions to the air-water interface as a function of time, and (2) measurement of overall dynamic surface activity on a pulsating bubble surfactometer (general methodological details of these two experimental techniques are described by Notter, Lung Surfactants: Basic Science and Clinical Applications, Marcel Dekker, Inc, New York (2000), which is hereby incorporated by reference in its entirety).\nIn adsorption studies, a given surfactant mixture was injected at time zero beneath the surface of a stirred surfactant-free subphase, and surface pressure (defined as surface tension lowering below that of the pure subphase) was measured as a function of time from the force on a hanging platinum slide (“Wilhelmy” method). By definition, higher surface pressure corresponds to lower surface tension (Notter, Lung Surfactants: Basic Science and Clinical Applications, Marcel Dekker, Inc, New York (2000))."}}, "note": "Bridges are numbered along the chain shown (N, C = ends). Roman numbers before positions name the chains, in order. Where no end group is shown, it is not given here."}
{"substance": "CWLCRALIKRIQAMIDATKRMLPQLVCRLVLRCS (not fully specified (residues 1, 33, bridges); cysteine pairing not given here) [MB DATK_Red]", "values": [{"measurement": "Oxygenation and lung compliance after instillation (FIG. 1)", "setting": "[1]", "result": "increased quickly"}, {"measurement": "relative order of pulmonary activity in terms of oxygenation", "setting": "[1]", "result": "reduced SMB DATK˜SMB_Ox˜MB_Ox>reduced MB DATK>Lipids alone"}, {"measurement": "relative pulmonary activity with respect to lung compliance", "setting": "[1]", "result": "reduced SMB DATK>SMB_Ox˜reduced MB DATK˜MB_Ox>Lipids alone"}, {"measurement": "adsorption activity relative to that previously reported for MB without the DATK substitution", "setting": "[2]; Table 10 conditions, 3% by weight with 5:3:2 DPPC:POPC:POPG", "result": "improved"}]}
{"substance": "FGIPFFPVHLKRLLILLLL-CONH2 (FGIPFFPVHLKRLLILLLL-NH2) [Mini-SPCff_2_leu]", "values": [{"measurement": "adsorption compared with lung surfactant (CLSE in Table 7)", "setting": "[2]", "result": "equaling that of lung surfactant"}]}
{"substance": "FPIPLPYCWLCRALIKRIQAMIDATKRMLPQLVCRLVLRCS (not fully specified (residues 8, 40); cysteine pairing not given here) [SMB DATK_Red]", "values": [{"measurement": "arterial oxygenation and dynamic compliance compared with reduced MB DATK", "setting": "[1]; FIG. 1, 3.0% by weight in 5:3:2 DPPC:POPC:POPG", "result": "significantly higher"}, {"measurement": "Oxygenation and lung compliance after instillation (FIG. 1)", "setting": "[1]", "result": "increased quickly"}, {"measurement": "relative order of pulmonary activity in terms of oxygenation", "setting": "[1]", "result": "reduced SMB DATK˜SMB_Ox˜MB_Ox>reduced MB DATK>Lipids alone"}, {"measurement": "relative pulmonary activity with respect to lung compliance", "setting": "[1]", "result": "reduced SMB DATK>SMB_Ox˜reduced MB DATK˜MB_Ox>Lipids alone"}]}
{"substance": "GIPFFPVHLKRLLIKVVVEELIVKVIVGALLMGL (SP-C FF Ion Lock2 K15/E19;E20/K24) [SP-C ion-lock2ff]", "values": [{"measurement": "adsorption, result in words", "setting": "[2]", "result": "substantial rapid adsorption"}]}
{"substance": "GIPSSPVHLKRLLIVVVVVELIVKVIVGALLMGL (SP-C SS Ion Lock + L E20/K24) [SP-Css ion-lock]", "values": [{"measurement": "Oxygenation and lung compliance after instillation (FIG. 2)", "setting": "[1]", "result": "increased quickly"}, {"measurement": "relative order of pulmonary activity in terms of oxygenation and lung compliance", "setting": "[1]", "result": "SP-C33˜SP-Css ion-lock>SP-Cff>Lipids alone"}, {"measurement": "adsorption, result in words", "setting": "[2]", "result": "substantial rapid adsorption"}]}
{"substance": "IPSSPVHLKRLKLLKLLLEEILLKILGALLMGL (SP-C33SS Ion Lock2 K15/E19;E20/K24) [SP-C33ss_ion2]", "values": [{"measurement": "adsorption, result in words", "setting": "[2]", "result": "substantial rapid adsorption"}]}
{"substance": "IPSSPVHLKRLKLLLLLLLLILLLILGALLMGL (SP-c33) [previously reported SP-C peptide (Almlen et al. 2007)]", "values": [{"measurement": "Oxygenation and lung compliance after instillation (FIG. 2)", "setting": "[1]", "result": "rapidly increased"}, {"measurement": "relative order of pulmonary activity in terms of oxygenation and lung compliance", "setting": "[1]", "result": "SP-C33˜SP-Css ion-lock>SP-Cff>Lipids alone"}]}
{"substance": "LGIPCFPSSLKRLLIIVVV-CONH2 (chain 1 LGIPCFPSSLKRLLIIVVV-NH2; chain 2 LGIPCFPSSLKRLLIIVVV-NH2; disulfide I:5-II:5 (inferred)) [Mini-C dog cf_cys5 dimer]", "values": [{"measurement": "adsorption compared with lung surfactant (CLSE in Table 7)", "setting": "[2]", "result": "equaling that of lung surfactant"}]}
{"substance": "LGIPFFPSSLKRLLIILLL-CONH2 (LGIPFFPSSLKRLLIILLL-NH2) [Mini-SPCff_dog_leu]", "values": [{"measurement": "adsorption compared with lung surfactant (CLSE in Table 7)", "setting": "[2]", "result": "equaling that of lung surfactant"}]}
{"substance": "LGIPFFPSSLKRLLIIVVV-CONH2 (LGIPFFPSSLKRLLIIVVV-NH2) [Mini-SPCff_dog]", "values": [{"measurement": "adsorption compared with lung surfactant (CLSE in Table 7)", "setting": "[2]", "result": "equaling that of lung surfactant"}]}
